PMC9944328 (Nature Communications, 2023)
Read-outs that look alike come from different tables or passages of the source.

Key:
Test in all cases: Bystander BRET endosomal trafficking (β-arrestin 1-Nluc, FYVE-mVenus), HEK293 (SSTR2 mutants);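 note: Read-out is the BRET ratio between Nluc-fused β-arrestin 1 and the early endosome marker FYVE-mVenus, measured after ligand addition with coelenterazine h as substrate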;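 for Span: percent of maximal wild-type response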;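 for Top: percent of maximal wild-type response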
SSTR2 mutants [1] = tested on: SSTR2 mutants
SSTR2 mutants [2] = biological target: SSTR2 mutants (Homo sapiens, UniProt P30874, Y312A)
Sequence of SSTR2 mutants (Homo sapiens, UniProt P30874, Y312A) (P30874 whole entry Y312A): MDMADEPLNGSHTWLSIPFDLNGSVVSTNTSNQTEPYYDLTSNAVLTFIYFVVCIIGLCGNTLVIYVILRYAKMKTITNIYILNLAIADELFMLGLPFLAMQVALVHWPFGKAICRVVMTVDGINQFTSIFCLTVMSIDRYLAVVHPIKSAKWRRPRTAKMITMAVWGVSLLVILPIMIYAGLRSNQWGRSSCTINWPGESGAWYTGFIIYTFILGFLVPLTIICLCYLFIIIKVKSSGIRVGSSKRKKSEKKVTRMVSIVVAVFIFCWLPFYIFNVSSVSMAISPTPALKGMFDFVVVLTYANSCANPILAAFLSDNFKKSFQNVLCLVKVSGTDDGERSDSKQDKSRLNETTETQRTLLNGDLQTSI

SSTR2 mutants [3] = biological target: SSTR2 mutants (Homo sapiens, UniProt P30874, K291A); conditions: for Bottom: best-fit value
Sequence of SSTR2 mutants (Homo sapiens, UniProt P30874, K291A) (P30874 whole entry K291A): as the sequence (P30874 whole entry Y312A) above, with K291A, A312Y counted along it

SSTR2 mutants [4] = biological target: SSTR2 mutants (Homo sapiens, UniProt P30874, I130A)
Sequence of SSTR2 mutants (Homo sapiens, UniProt P30874, I130A) (P30874 whole entry I130A): as the sequence (P30874 whole entry Y312A) above, with I130A, A312Y counted along it

SSTR2 mutants [5] = biological target: SSTR2 mutants (Homo sapiens, UniProt P30874, I284A); conditions: for Bottom: best-fit value
Sequence of SSTR2 mutants (Homo sapiens, UniProt P30874, I284A) (P30874 whole entry I284A): as the sequence (P30874 whole entry Y312A) above, with I284A, A312Y counted along it

[6] = best-fit value, F294A-1 (run 1)
[7] = best-fit value, F294A-2 (run 2)
[8] = best-fit value, F294A-3 (run 3)
[9] = best-fit value, I284A-1 (run 1)
[10] = best-fit value, I284A-2 (run 2)
[11] = best-fit value, I284A-3 (run 3)
[12] = best-fit value, K291A-1 (run 1)
[13] = best-fit value, K291A-2 (run 2)
[14] = best-fit value, K291A-3 (run 3)
[15] = best-fit value, N276A-1 (run 1)
[16] = best-fit value, N276A-2 (run 2)
[17] = best-fit value, N276A-3 (run 3)

`N#Cc1cccc(-c2ccc3ncc(-c4cc(F)cc(F)c4)c(N4CCC(N)CC4)c3c2)c1O` [paltusotine] was tested, and the Span (SSTR2 mutants [1]; [6]) was 94.38, the Top (SSTR2 mutants [1]; [6]) was 95.1 and the EC50 (SSTR2 mutants [1]; [7]) was 1.28 µM. It also gave a LogEC50 (SSTR2 mutants [1]; [7]) of -5.892, a Span (SSTR2 mutants [1]; [7]) of 84.17 and a Top (SSTR2 mutants [1]; [7]) of 81.83. For the same compound, the EC50 (SSTR2 mutants [1]; [8]) was 1.57 µM, the LogEC50 (SSTR2 mutants [1]; [8]) was -5.803 and the Span (SSTR2 mutants [1]; [8]) was 87.18. It also gave a Top (SSTR2 mutants [1]; [8]) of 86.4, an EC50 (SSTR2 mutants [1]; [9]) of 0.0712 µM and a LogEC50 (SSTR2 mutants [1]; [9]) of -7.148. The Span (SSTR2 mutants [1]; [9]) was 95.18, the Top (SSTR2 mutants [1]; [9]) was 94.55 and the EC50 (SSTR2 mutants [1]; [10]) was 0.0841 µM. The LogEC50 (SSTR2 mutants [1]; [10]) was -7.075, the Span (SSTR2 mutants [1]; [10]) was 103.8 and the Top (SSTR2 mutants [1]; [10]) was 105.1. The EC50 (SSTR2 mutants [1]; [11]) was 0.0826 µM, the LogEC50 (SSTR2 mutants [1]; [11]) was -7.083 and the Span (SSTR2 mutants [1]; [11]) was 102.7. For the same compound, the Top (SSTR2 mutants [1]; [11]) was 102.8, the EC50 (SSTR2 mutants [1]; [12]) was 0.0357 µM and the LogEC50 (SSTR2 mutants [1]; [12]) was -7.448. The Span (SSTR2 mutants [1]; [12]) was 68.73, the Top (SSTR2 mutants [1]; [12]) was 69.72 and the EC50 (SSTR2 mutants [1]; [13]) was 0.0839 µM. The LogEC50 (SSTR2 mutants [1]; [13]) was -7.076, the Span (SSTR2 mutants [1]; [13]) was 87.08 and the Top (SSTR2 mutants [1]; [13]) was 83.73. It also gave an EC50 (SSTR2 mutants [1]; [14]) of 0.0302 µM, a LogEC50 (SSTR2 mutants [1]; [14]) of -7.52 and a Span (SSTR2 mutants [1]; [14]) of 76.1. It also gave a Top (SSTR2 mutants [1]; [14]) of 71.42, an EC50 (SSTR2 mutants [1]; [15]) of 0.14 µM and a LogEC50 (SSTR2 mutants [1]; [15]) of -6.855. The Span (SSTR2 mutants [1]; [15]) was 79.71, the Top (SSTR2 mutants [1]; [15]) was 79.77 and the EC50 (SSTR2 mutants [1]; [16]) was 0.11 µM. The LogEC50 (SSTR2 mutants [1]; [16]) was -6.96, the Span (SSTR2 mutants [1]; [16]) was 78.62 and the Top (SSTR2 mutants [1]; [16]) was 78.47. It also gave an EC50 (SSTR2 mutants [1]; [17]) of 0.1 µM, a LogEC50 (SSTR2 mutants [1]; [17]) of -7 and a Span (SSTR2 mutants [1]; [17]) of 73.41. For the same compound, the Top (SSTR2 mutants [1]; [17]) was 70.97, the EC50 (SSTR2 mutants [1]; read-out: EC50 (best-fit), I130A-1 (run 1)) was ~7970 µM and the EC50 (SSTR2 mutants [1]; read-out: EC50 (best-fit), I130A-2 (run 2)) was 0.000139 µM. It also gave an EC50 (SSTR2 mutants [1]; read-out: EC50 (best-fit), I130A-3 (run 3)) of 0.00034 µM, an EC50 (SSTR2 mutants [1]; read-out: EC50 (best-fit), P220A-1 (run 1)) of 0.184 µM and an EC50 (SSTR2 mutants [1]; read-out: EC50 (best-fit), P220A-2 (run 2)) of ~7280 µM. For the same compound, the EC50 (SSTR2 mutants [1]; read-out: EC50 (best-fit), P220A-3 (run 3)) was 0.831 µM, the EC50 (SSTR2 mutants [1]; read-out: EC50 (best-fit), R140A-1 (run 1)) was 0.00467 µM and the EC50 (SSTR2 mutants [1]; read-out: EC50 (best-fit), R140A-2 (run 2)) was 0.00664 µM. It also gave an EC50 (SSTR2 mutants [1]; read-out: EC50 (best-fit), R140A-3 (run 3)) of 0.00659 µM, an EC50 (SSTR2 mutants [1]; read-out: EC50 (best-fit), W269A-1 (run 1)) of 0.13 µM and an EC50 (SSTR2 mutants [1]; read-out: EC50 (best-fit), W269A-2 (run 2)) of 0.476 µM. It also gave an EC50 (SSTR2 mutants [1]; read-out: EC50 (best-fit), W269A-3 (run 3)) of 0.155 µM, an EC50 (SSTR2 mutants [1]; read-out: EC50 (best-fit), Y312A-1 (run 1)) of 0.00818 µM and an EC50 (SSTR2 mutants [1]; read-out: EC50 (best-fit), Y312A-2 (run 2)) of 0.0115 µM. The EC50 (SSTR2 mutants [1]; read-out: EC50 (best-fit), Y312A-3 (run 3)) was 0.00641 µM, the “Bottom (best-fit)” value (SSTR2 mutants [2]; Y312A-1 (run 1)) was -0.8168 and the “Bottom (best-fit)” value (SSTR2 mutants [2]; Y312A-2 (run 2)) was -2.056. For the same compound, the “Bottom (best-fit)” value (SSTR2 mutants [2]; Y312A-3 (run 3)) was 0.2687, the EC50 (SSTR2 mutants [3]) was 0.0894 ± 0.00133 µM and the Emax (SSTR2 mutants [3]; HEK293) was 86.8 ± 5.01%. It also gave a Bottom (SSTR2 mutants [3]; K291A-1 (run 1)) of 0.9895, a Bottom (SSTR2 mutants [3]; K291A-2 (run 2)) of -3.341 and a Bottom (SSTR2 mutants [3]; K291A-3 (run 3)) of -4.686. The “Bottom (best-fit)” value (SSTR2 mutants [4]; I130A-1 (run 1)) was -1.998, the “Bottom (best-fit)” value (SSTR2 mutants [4]; I130A-2 (run 2)) was 0.9306 and the “Bottom (best-fit)” value (SSTR2 mutants [4]; I130A-3 (run 3)) was -2.793. It also gave an EC50 (SSTR2 mutants [5]) of 0.0898 ± 0.00128 µM, an Emax (SSTR2 mutants [5]; HEK293) of 106 ± 6.25% and a Bottom (SSTR2 mutants [5]; I284A-1 (run 1)) of -0.6254. The Bottom (SSTR2 mutants [5]; I284A-2 (run 2)) was 1.24 and the Bottom (SSTR2 mutants [5]; I284A-3 (run 3)) was 0.1294.
